According to article PMC11324770, “A novel in vitro high-content imaging assay for the prediction of drug-induced lung toxicity” (Archives of Toxicology, 2024):

Key:
respiratory tract = test system: respiratory tract; design: method as in printed; conditions: ref not given, cited from earlier work
occludin in A549 cells = experiment: High-content imaging of junctional occludin staining in A549 cells; assay type: cell-based; conditions: for area of junctional staining present at the cell membrane compared to DMSO controls: A549, 24 h, concentration-dependent, Fig. 2 shows TNFα/TGFβ as a combination
Procedure: A549 (ATCC), an alveolar epithelial cell line, and CALU-3 (ATCC), an epithelial cell line, were cultured in Dulbecco’s modified Eagle’s medium (DMEM) supplemented with 10% foetal bovine serum (FBS). 16HBE bronchial epithelial cells, kindly provided by Carl Staples (University of Southampton), were cultured in DMEM supplemented with 10% FBS and 1% non-essential amino acids). All culture media materials were purchased from Thermo Fisher Scientific. For imaging experiments, cells were seeded at 10,000 cells per well in 96-well CellCarrier imaging plates (Perkin Elmer) and cultured for 72 h to allow tight junction formation. All experiments were carried out between passages 3 and 15.
All tested compounds were synthesized internally and provided in 100% DMSO. Compounds were diluted in appropriate media to a 9-point concentration range from 100 µM down to 15 nM with a final concentration of 1% DMSO. Cigarette smoke extract (CSE) was produced by passing smoke from 5 University of Kentucky research cigarettes with filters removed through PBS with an air pump at a rate 0.07 L/min. CSE was diluted in appropriate media to a concentration range of 12% to 0.01%. TNF-α and TGF-β (Thermo Fisher Scientific) were diluted in appropriate media to a concentration range of 50 ng/ml to 0.02 ng/ml. All treatments were for 24 h and terminated by removing media and fixing with 4% paraformaldehyde (PFA). Vehicle (1% DMSO) was included for each plate and all treatments were carried out in duplicate on each plate. All experiments were independently repeated at least 3 times.
Following treatment, cells were washed twice in PBS and fixed in 4% PFA for 20 min at room temperature and permeabilized using 0.5% Triton-X for 15 min at room temperature. Cells were then blocked using 5% goat serum in PBS at room temperature for 1 h. Primary antibodies were applied as per optimized conditions based on manufacturers recommended dilutions overnight at 4 °C. Cells were washed twice in PBS prior to application of secondary antibodies at a dilution of 1:5000 for 1 h at room temperature. Cells were washed twice with PBS and subsequently stained with a mixture of Hoechst and Cell Mask Deep Red at 1:1000 in PBS. Finally, cells were washed twice in PBS and either stored at 4 °C or imaged immediately. Plates were imaged using a MolecularDevices IXC. […] Cell viability was assessed through direct counts of nuclei.
Analysis modules were written using the custom module editor of MetaXpress version 6.5.4.532. […] This thickened outline mask was then applied to the cell mask image and the area of staining was quantified. […] To quantify the amount of occludin staining at the membrane, the final step of the module overlaid the thickened membrane mask with the thickened junction mask. […]

[Cl][Cd][Cl] [Cadmium chloride]
Comment (respiratory findings) (respiratory tract; earlier non-clinical or clinical findings): Pneumonitis and fibrosis
Respiratory safety risk (respiratory tract; earlier pivotal toxicology studies in pre-clinical species or clinic): Yes
area of junctional staining present at the cell membrane compared to DMSO controls (occludin in A549 cells): significant decrease
IC50 (occludin in A549 cells; area of occludin staining normalized to cell number and DMSO, 24 h, 9-point range up to 100 µM, NA = no IC50 curve could be established): 3.7 µM

TNF-α
area of junctional staining present at the cell membrane compared to DMSO controls (occludin in A549 cells): significant decrease

TGF-β
area of junctional staining present at the cell membrane compared to DMSO controls (occludin in A549 cells): significant decrease
